Experimental data from ChEMBL document CHEMBL1909046, “DrugMatrix in vitro pharmacology data”.

Legend:
[1] = target: Cytochrome P450 2C9 (Homo sapiens, UniProt P11712); conditions: bti-tn-5b1-4
[2] = target: Cytochrome P450 2D6 (Homo sapiens, UniProt P10635); conditions: bti-tn-5b1-4
[3] = target: Cytochrome P450 3A4 (Homo sapiens, UniProt P08684); conditions: bti-tn-5b1-4
[4] = target: Cytochrome P450 2C19 (Homo sapiens, UniProt P33261); conditions: bti-tn-5b1-4
[5] = target: Voltage-gated inwardly rectifying potassium channel KCNH2 (Homo sapiens, UniProt Q12809); conditions: hek293
Voltage-gated inwardly rectifying potassium channel KCNH2, sequence (Q12809 whole entry): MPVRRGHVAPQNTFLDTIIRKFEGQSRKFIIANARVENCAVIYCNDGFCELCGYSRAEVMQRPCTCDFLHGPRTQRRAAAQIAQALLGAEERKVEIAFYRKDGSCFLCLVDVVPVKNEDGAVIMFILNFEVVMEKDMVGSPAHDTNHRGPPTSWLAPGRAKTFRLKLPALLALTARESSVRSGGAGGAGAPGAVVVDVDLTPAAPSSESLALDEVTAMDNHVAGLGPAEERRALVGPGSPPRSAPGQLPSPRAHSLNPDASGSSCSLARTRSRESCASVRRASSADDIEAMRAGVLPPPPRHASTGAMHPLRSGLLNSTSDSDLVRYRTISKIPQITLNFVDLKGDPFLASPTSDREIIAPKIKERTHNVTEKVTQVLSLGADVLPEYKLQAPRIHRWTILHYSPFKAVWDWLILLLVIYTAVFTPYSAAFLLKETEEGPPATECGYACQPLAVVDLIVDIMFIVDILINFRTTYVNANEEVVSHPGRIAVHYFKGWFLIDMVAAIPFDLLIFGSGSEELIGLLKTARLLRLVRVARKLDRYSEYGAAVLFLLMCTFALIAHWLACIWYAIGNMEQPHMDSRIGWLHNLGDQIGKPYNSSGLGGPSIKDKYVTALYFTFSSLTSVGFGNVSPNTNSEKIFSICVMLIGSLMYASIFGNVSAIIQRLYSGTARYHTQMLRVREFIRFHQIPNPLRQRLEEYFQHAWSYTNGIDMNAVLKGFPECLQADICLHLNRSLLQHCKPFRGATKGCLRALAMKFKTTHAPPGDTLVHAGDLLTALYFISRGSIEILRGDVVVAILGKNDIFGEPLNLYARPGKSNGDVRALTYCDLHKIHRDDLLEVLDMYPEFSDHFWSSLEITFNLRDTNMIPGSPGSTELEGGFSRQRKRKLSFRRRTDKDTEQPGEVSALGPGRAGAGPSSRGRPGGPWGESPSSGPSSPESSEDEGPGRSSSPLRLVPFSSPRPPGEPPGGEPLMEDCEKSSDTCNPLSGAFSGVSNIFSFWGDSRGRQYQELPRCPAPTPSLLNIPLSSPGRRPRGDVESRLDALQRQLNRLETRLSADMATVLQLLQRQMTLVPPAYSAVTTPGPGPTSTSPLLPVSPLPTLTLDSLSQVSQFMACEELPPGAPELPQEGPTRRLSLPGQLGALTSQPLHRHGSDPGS

[6] = target: Cytochrome P450 2E1 (Homo sapiens, UniProt P05181); conditions: bti-tn-5b1-4
Cytochrome P450 2E1, sequence (P05181 whole entry): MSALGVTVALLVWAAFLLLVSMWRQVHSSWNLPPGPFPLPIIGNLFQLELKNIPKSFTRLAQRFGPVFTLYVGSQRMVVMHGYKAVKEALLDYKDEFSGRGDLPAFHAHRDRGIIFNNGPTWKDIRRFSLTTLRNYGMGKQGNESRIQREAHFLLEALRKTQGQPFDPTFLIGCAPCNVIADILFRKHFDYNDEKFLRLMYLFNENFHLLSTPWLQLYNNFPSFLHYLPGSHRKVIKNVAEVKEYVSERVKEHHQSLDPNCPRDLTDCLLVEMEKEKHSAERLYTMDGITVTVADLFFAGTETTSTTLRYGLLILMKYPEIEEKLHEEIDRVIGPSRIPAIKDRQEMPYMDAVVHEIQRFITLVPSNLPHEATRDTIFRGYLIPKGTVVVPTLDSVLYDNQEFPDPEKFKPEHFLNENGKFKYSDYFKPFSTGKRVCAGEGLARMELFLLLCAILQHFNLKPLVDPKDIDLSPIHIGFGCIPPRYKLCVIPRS

[7] = target: T1, Cytochrome P450 1A2 (Homo sapiens, UniProt P05177); conditions: bti-tn-5b1-4
T1 sequence (P05177 whole entry): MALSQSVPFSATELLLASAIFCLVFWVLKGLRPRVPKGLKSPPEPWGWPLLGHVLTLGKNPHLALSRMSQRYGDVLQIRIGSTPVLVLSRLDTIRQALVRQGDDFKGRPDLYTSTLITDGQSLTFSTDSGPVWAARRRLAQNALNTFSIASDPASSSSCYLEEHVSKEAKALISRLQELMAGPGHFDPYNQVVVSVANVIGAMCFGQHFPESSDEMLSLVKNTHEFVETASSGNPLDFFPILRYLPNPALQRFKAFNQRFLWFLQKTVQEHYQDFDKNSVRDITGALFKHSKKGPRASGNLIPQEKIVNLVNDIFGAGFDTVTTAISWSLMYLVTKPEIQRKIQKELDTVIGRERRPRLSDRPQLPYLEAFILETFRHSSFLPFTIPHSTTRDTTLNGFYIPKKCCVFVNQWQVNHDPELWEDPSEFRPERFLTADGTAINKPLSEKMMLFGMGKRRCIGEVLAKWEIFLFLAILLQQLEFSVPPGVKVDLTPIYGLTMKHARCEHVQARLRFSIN

[8] = target: T2, Cytochrome P450 2A6 (Homo sapiens, UniProt P11509); conditions: bti-tn-5b1-4
T2 sequence (P11509 whole entry): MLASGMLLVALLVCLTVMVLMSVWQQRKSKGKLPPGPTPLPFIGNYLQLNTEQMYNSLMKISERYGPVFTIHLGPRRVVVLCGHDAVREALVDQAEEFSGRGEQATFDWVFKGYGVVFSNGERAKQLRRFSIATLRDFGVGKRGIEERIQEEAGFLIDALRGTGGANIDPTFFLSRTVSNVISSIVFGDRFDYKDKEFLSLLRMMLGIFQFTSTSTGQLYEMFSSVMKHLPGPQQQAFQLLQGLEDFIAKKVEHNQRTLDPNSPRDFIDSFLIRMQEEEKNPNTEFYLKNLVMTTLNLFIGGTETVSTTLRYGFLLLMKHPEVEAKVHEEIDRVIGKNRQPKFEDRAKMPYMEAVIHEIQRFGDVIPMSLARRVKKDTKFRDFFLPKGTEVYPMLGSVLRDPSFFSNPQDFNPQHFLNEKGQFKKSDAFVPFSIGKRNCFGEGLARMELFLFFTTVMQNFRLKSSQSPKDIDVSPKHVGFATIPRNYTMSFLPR
Further: in other assays of this panel Not Active means under 50% inhibition at 10 µM.

Cytochrome P450 2C19, sequence (P33261 whole entry): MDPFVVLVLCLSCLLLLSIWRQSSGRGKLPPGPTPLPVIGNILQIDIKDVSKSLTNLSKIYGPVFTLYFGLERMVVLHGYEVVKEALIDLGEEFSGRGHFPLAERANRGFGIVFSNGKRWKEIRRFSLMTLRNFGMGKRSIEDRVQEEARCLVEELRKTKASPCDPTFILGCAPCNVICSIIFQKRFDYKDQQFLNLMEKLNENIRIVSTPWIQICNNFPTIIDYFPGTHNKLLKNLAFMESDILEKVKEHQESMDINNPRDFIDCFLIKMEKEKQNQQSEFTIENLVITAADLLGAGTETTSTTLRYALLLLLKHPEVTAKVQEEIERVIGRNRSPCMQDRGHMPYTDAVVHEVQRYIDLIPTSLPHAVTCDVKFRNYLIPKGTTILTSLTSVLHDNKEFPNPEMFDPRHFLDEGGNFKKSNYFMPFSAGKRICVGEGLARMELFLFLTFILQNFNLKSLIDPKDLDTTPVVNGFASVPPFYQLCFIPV
Cytochrome P450 3A4, sequence (P08684 whole entry): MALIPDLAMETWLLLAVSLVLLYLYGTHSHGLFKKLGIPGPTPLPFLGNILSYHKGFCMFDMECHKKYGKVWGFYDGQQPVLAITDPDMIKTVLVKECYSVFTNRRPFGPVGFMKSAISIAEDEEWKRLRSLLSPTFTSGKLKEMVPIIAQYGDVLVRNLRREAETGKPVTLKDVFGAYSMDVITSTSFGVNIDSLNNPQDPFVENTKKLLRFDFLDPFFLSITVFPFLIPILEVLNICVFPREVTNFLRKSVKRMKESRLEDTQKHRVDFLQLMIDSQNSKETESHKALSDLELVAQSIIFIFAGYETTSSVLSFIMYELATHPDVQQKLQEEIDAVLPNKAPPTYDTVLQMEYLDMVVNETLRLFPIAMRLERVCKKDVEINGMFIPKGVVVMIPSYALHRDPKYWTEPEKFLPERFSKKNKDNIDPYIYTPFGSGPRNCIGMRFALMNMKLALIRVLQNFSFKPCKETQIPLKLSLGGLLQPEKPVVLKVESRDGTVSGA
Cytochrome P450 2D6, sequence (P10635 whole entry): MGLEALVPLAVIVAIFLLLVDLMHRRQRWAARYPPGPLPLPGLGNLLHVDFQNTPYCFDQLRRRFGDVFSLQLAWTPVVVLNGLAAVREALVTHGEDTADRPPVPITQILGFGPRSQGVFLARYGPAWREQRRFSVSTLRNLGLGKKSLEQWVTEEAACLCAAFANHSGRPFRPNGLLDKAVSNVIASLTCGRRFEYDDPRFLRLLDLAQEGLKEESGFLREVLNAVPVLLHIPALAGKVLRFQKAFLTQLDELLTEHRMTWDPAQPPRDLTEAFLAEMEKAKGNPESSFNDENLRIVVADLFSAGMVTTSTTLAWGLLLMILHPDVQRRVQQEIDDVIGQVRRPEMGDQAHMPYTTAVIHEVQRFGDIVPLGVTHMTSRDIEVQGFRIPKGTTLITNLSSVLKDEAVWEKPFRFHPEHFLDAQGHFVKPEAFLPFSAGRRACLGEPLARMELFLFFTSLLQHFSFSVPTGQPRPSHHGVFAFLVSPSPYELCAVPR
Cytochrome P450 2C9, sequence (P11712 whole entry): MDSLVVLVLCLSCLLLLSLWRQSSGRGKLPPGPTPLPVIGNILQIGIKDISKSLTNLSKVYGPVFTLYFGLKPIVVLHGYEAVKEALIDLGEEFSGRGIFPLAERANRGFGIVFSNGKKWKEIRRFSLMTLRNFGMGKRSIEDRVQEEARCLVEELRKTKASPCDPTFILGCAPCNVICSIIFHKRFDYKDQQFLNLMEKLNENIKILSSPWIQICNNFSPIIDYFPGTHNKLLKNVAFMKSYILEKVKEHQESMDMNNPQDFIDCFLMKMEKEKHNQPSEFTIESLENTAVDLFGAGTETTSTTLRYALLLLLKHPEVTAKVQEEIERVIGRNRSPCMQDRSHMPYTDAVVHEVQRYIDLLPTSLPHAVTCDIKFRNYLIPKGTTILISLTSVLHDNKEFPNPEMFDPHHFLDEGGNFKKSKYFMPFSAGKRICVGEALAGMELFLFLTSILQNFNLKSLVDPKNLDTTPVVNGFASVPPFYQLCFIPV

IC50 [1]: Not Active | Ki [1]: Not Active | IC50 [2]: Not Active | Ki [2]: Not Active | IC50 [3]: Not Active | Ki [3]: Not Active | IC50 [4]: Not Active | Ki [4]: Not Active | IC50 [6]: Not Active | Ki [6]: Not Active | IC50 [7]: Not Active | Ki [7]: Not Active | IC50 [8]: Not Active | Ki [8]: Not Active
Compound: CC=Cc1ccc(O)c(OC)c1 [ISOEUGENOL]
IC50 [5]: Not Active | Ki [5]: Not Active
